According to PubChem BioAssay (NCI):
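Growth conditions: 96-well plates. Treatment: test compound, 48 hours, 5 concentrations. Analysis: linear interpolation between bracketing concentrations; unreached endpoints set to highest concentration. GI50 marks 50% less growth. TGI is the concentration that stops growth completely.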

What was measured:
Assay in all cases: NCI tumour cell line growth inhibition, 48 h
KM12 colon = tested on: KM12 colon
786-0 renal = tested on: 786-0 renal
EKVX NSCLC = tested on: EKVX NSCLC
SF-295 CNS = tested on: SF-295 CNS
HOP-62 NSCLC = tested on: HOP-62 NSCLC
UO-31 renal = tested on: UO-31 renal
SW-620 colon = tested on: SW-620 colon
SK-MEL-5 melanoma = tested on: SK-MEL-5 melanoma
SK-MEL-28 melanoma = tested on: SK-MEL-28 melanoma
MCF7 breast = tested on: MCF7 breast

| SMILES | TGI (KM12 colon) [µM] | TGI (786-0 renal) [µM] | TGI (EKVX NSCLC) [µM] | TGI (SF-295 CNS) [µM] | TGI (HOP-62 NSCLC) [µM] | TGI (UO-31 renal) [µM] | TGI (SW-620 colon) [µM] | TGI (SK-MEL-5 melanoma) [µM] | GI50 (SK-MEL-28 melanoma) [µM] | TGI (SK-MEL-28 melanoma) [µM] | GI50 (KM12 colon) [µM] | GI50 (MCF7 breast) [µM] | TGI (MCF7 breast) [µM] | GI50 (786-0 renal) [µM] | GI50 (SF-295 CNS) [µM] | GI50 (HOP-62 NSCLC) [µM] | GI50 (UO-31 renal) [µM] | GI50 (SW-620 colon) [µM] | GI50 (SK-MEL-5 melanoma) [µM] | GI50 (EKVX NSCLC) [µM] |
| --- | --- | --- | --- | --- | --- | --- | --- | --- | --- | --- | --- | --- | --- | --- | --- | --- | --- | --- | --- | --- |
| O=Cc1ccc2c(c1I)OCO2 | > 100 | > 100 | > 100 | > 100 | > 100 | > 100 | > 100 | > 100 | – | – | – | – | – | – | – | – | – | – | – | – |
| COc1ccc(Nc2ccnc(N3CCN(c4ccnc5cc(Cl)ccc45)CC3)n2)cc1 | 4.16 | 6.87 | – | 1.08 | > 29 | 4.29 | > 73.1 | 1.87 | 1.21 | 4.89 | 1.01 | 1.01 | 7.32 | 1.4 | 0.267 | 1.27 | 0.629 | 0.739 | 0.579 | – |
| C=C1[C@@H](O)O[C@H]2[C@H]1C[C@H](OC(C)=O)[C@]13C(=O)O[C@H]4C[C@](C)(O)[C@H]([C@H]41)C31C=C(C)[C@]2(O)O1 | > 100 | 49.1 | 0.0269 | > 100 | – | 74.1 | > 100 | – | 61 | > 100 | 36.8 | 25.8 | 54.7 | 22.4 | 4.03 | – | 27.2 | 29.8 | – | – |
| Cc1cccc(NC(=O)/C(=N\N)C(c2cnc3ccc([N+](=O)[O-])cc3n2)[N+](=O)[O-])c1C (stereo unspecified) | > 100 | > 100 | > 100 | > 100 | > 100 | > 100 | > 100 | > 100 | – | > 100 | – | – | – | – | – | – | – | – | – | – |
| COc1cc(C2(C)SCCCS2)cc(OC)c1OC | > 100 | > 100 | > 100 | > 100 | > 100 | > 100 | > 100 | > 100 | – | > 100 | – | – | – | – | – | – | – | – | – | – |
| COc1ccc(NC(=O)C(=O)/C=C(\O)c2ccccc2)cc1 | > 10 | > 10 | > 10 | > 10 | > 10 | – | > 10 | > 10 | – | > 10 | – | – | > 10 | – | – | – | – | – | – | – |
| C[C@@H]1O[C@@H](O[C@@H]2[C@@H](O)[C@H](OCCc3ccc(O)c(O)c3)O[C@H](CO)[C@H]2OC(=O)/C=C/c2ccc(O)c(O)c2)[C@H](O)[C@H](OC2OC[C@](O)(CO)[C@H]2O)[C@H]1O (stereo partly specified) | > 100 | > 100 | > 100 | > 100 | > 100 | > 100 | 52.8 | > 100 | > 100 | > 100 | > 100 | – | – | 84.7 | > 100 | > 100 | > 100 | 22.7 | > 100 | 63.9 |
| CCOC(=O)C1Nc2ccccc2[C@H]2OCC[C@@H]12 (stereo partly specified) | > 100 | > 100 | > 100 | > 100 | > 100 | – | > 100 | > 100 | – | > 100 | – | – | – | – | – | – | – | – | – | – |
| CCCC(S(=O)(=O)c1ccccc1)S(=O)(=O)c1ccccc1 | > 100 | > 100 | > 100 | > 100 | > 100 | > 100 | > 100 | > 100 | – | > 100 | – | – | – | – | – | – | – | – | – | – |
| N#CCN1C(=O)c2cc([N+](=O)[O-])cc3cc([N+](=O)[O-])cc(c23)C1=O | 28 | 42.8 | 55.8 | > 100 | 41.9 | 32 | 20.3 | 29.8 | – | > 52.8 | – | – | – | – | – | – | – | – | – | – |
| N#CNc1nc(N)c(-c2ccc(Cl)cc2)c(C(=O)Nc2nccs2)n1 | > 100 | > 100 | > 100 | > 100 | > 100 | > 100 | > 100 | > 100 | – | > 100 | – | – | – | – | – | – | – | – | – | – |
| N#CCCNc1nonc1-c1nc2ccccc2n1CC(=O)c1ccc(NC(=O)[C@@H](N)CCCCN)cc1 | – | > 100 | – | > 100 | > 100 | > 100 | > 100 | 0.197 | – | – | 0.0279 | 0.0302 | > 100 | 0.0557 | 0.016 | 0.0562 | 0.282 | 0.0443 | 0.03 | – |
| COc1ccc(OC(=O)CC2Cc3cc(OC)c(OC)c(OC)c3-c3ccc(SC)c(=O)cc32)cc1 (stereo unspecified) | 19.6 | > 36 | > 100 | – | > 39 | > 100 | > 39.7 | 13 | – | 98.9 | – | – | – | – | – | – | – | – | – | – |
| C[CH2][Hg][S]c1ccccc1C(=O)O | 13.3 | 2.95 | 5.39 | 16.5 | 12.3 | 2.79 | 2.24 | – | 1.71 | 3.69 | 3.82 | 1.21 | 2.62 | 1.59 | 3.7 | 2.58 | 1.43 | 0.838 | – | 2.05 |
| CCc1c(C)nc2sc3c(N)ncnc3c2c1C | > 25 | > 25 | – | > 25 | > 25 | > 25 | > 25 | > 25 | > 25 | > 25 | > 25 | > 25 | > 25 | > 25 | > 25 | > 25 | > 25 | > 25 | > 25 | – |
| Cc1cc(=O)c2c(O)cc3c(c2o1)CC=C(COC1OC(COC2OC(CO)C(O)C(O)C2O)C(O)C(O)C1O)CO3 (stereo unspecified) | > 100 | > 100 | > 100 | > 100 | > 100 | > 100 | > 100 | > 100 | – | > 100 | – | – | – | – | – | – | – | – | – | – |
| CC1c2ccccc2CCN1c1ccc(CO)c(Cl)c1 (stereo unspecified) | > 72.5 | 43.1 | – | 31.4 | 25.3 | 65.3 | > 100 | 27.1 | 17.1 | 63.7 | 22.6 | 0.0565 | 23.2 | 16.7 | 0.274 | 1.67 | 14.6 | 0.203 | 13.8 | – |
| O=C(NCCNCCO)c1cccc2ccc(-c3ccccc3)nc12 | 18.3 | 19.6 | 19.7 | 18.9 | 22.8 | 12 | 14.2 | 12.5 | – | 22.1 | – | – | – | – | – | – | – | – | – | – |
